In patent publication US6806257B1, “Flavones as inducible nitric oxide synthase inhibitors, cyclooxygenase-2 inhibitors and potassium channel activators” (priority 1999, dated 2004):
“Also recorded” adds a separate entry of the source. Read-outs that look alike come from different tables or passages of the source. Marks after values point to notes of the source that are not given here.

Tests used:
[1] = tested on: porcine cerebral arteries; assay: Relaxation elicited by transmural nerve stimulation (TNS) in cerebral arterial segments; details: acute administration 30 μM, U-46619 tone
Protocol: (§1) In vitro tissue bath studies. The arterial segment (4 mm long) of the circle of Willis was dissected and cannulated with a stainless-steel rod (30-28 gauge) of hemispherical section, and a short piece of platinum wire, and mounted horizontally in a plastic tissue bath containing 6 ml of Krebs' bicarbonate solution. The platinum wire was bent into a U shape and anchored to a gate. The stainless-steel rod was connected to a stain gauge transducer (UC3, available from Gould) for isometric recording of changes in force. The temperature of Krebs' solution in the tissue baths, equilibrated with 95% O2 and 5% CO2, was maintained at 37° C. Tissues were equilibrated in the Krebs' solution for an initial 30 minutes and were mechanically stretched to a resting tension of 0.75 g for another 30 minutes. The segments of the circle of Willis were precontracted with 9,11-dideoxy-9α,11α-epoxymethanoprostagladin F2α(U-46619, 1 μM) to induce an active muscle tone of 0.5-0.75 g. Experimental drugs such as L-arginine and Oroxylin A of various concentrations, and TNS at 2,4,8 Hz were applied to induce relaxation. The arteries were then washed with pre-warmed Krebs' solution. […] Stimulation parameters were continuously monitored on a Tektronix oscilloscope. […] The magnitude of a vasodilator response induced by experimental drugs and TNS was expressed as a percentage of the maximum response induced by PPV. […]

[2] = tested on: iNOS; assay: LPS-induced nitrite production and iNOS expression in Bcl-2-overexpressed RAW264.7 cells; assay type: cell-based, mouse; details: 20 μg/ml, LPS 100 ng/ml, Bcl-2/RAW-1 and Bcl-2/RAW-2 cells
[3] = tested on: COX-2; assay: LPS-induced COX-2 mRNA in Bcl-2-overexpressed RAW264.7 cells; assay type: cell-based, mouse; details: 20 μg/ml, LPS 100 ng/ml
[4] = tested on: porcine cerebral arteries; assay: L-arginine-induced relaxation in LPS-incubated cerebral arteries without endothelial cells; details: LPS 10 μg/ml 20 hours, concomitant 60 μM, U-46619 tone
Protocol: as §1

[5] = tested on: nNOS; assay: nNOS expression in cultured primary smooth muscle cells from porcine cerebral arteries; assay type: cell-based; details: 30 μM and 60 μM
[6] = tested on: porcine cerebral arteries; assay: In vitro tissue bath vasorelaxation of precontracted porcine cerebral arteries; details: for EC50: Sus scrofa; for U-46619-induced active muscle tone: 0.1-30 μM
[7] = tested on: LPS-induced NO production in RAW264.7 macrophages; assay: LPS-induced nitrite (NO) production in RAW264.7 macrophages, Griess reaction; assay type: cell-based, mouse; details: 5, 10 or 20 μg/ml together with 100 ng/ml LPS for 24 hours
Protocol: Cells. RAW264.7, a mouse macrophage cell line, was obtained from American Type Culture Collection. Cells were cultured in RPMI-1640 medium (available from Gibco Life Technology, in Gaithersburg, Md.) supplemented with 2 mM L-glutamine, antibiotics (100 units/ml penicillin-A and 100 units/ml streptomycin) and 10% heat-inactivated fetal bovine serum (Gibco/BRL) and maintained at 37° C in a humidified incubator containing 5% CO2.
Nitrite assay. The nitrite concentration in the medium was measured as an indicator of NO production according to the Griess reaction (Kim et al., J. Immunol. 153: 4741-4748). One hundred microliters of each supernatant was. mixed with the same volume of Griess reagent (1% sulfanilamide in 5% phosphoric acid and 0. 1% naphthylethylenediamine dihydrochloride in water); absorbency of the mixture at 550 nm was determined with an enzyme-linked immunosorbent assay plate reader (Dynatech MR-7000; Dynatech Labs, Chantilly, Va.).
The effects of flavonoids, ellagitannins, anthraquinones on LPS-induced NO production in macrophages were studied as follows. The chemical structures of two flavonoids (myricitrin, N1; oroxylin A, N2) four ellagitannins (penta-O-galloyl-β-glucopyranose, N3; woodfordin C, N4; onothein B, N5; cuphiin, N6), and two anthraquinones (emodin, N7; physcion, N8) that were used in the present study were shown in FIG. 1. The effects of these eight compounds on NO production in RAW264.7 macrophages were investigated. The accumulated nitrite in the culture medium was used as an index for NO synthesis from these cells. […]

[8] = conclusion from blocker experiments

COc1c(O)cc2oc(-c3ccccc3)cc(=O)c2c1O [oroxylin A, 5,7-dihydroxy-6-methoxy flavone]
relaxation elicited by TNS at 2, 4, and 8 Hz [1]: slightly and significantly enhanced; also recorded: increased
LPS-induced iNOS gene expression [2]: inhibited
LPS-induced nitrite production [2]: inhibited
LPS-induced COX-2 mRNA [3]: inhibited
LPS-rendered L-Arginine-induced relaxation [4]: significantly decreased
expression of nNOS [5]: did not affect
transient relaxation ([6]; 60 μM, KCl (80 mM)-pre-contracted arterial rings, n=5): 20.2±1.63 % of PPV-induced maximum relaxation
relaxation ([6]; 60 μM, same arteries contracted with U-46619, n=5): 95.1±4.31 % of PPV-induced maximum relaxation
sustained relaxation in KCl-precontracted arteries ([6]; 80 mM KCl, 1-60 μM, with or without endothelial cells): did not induce sustained relaxation; also recorded: failed to induce sustained relaxation
Percent of Maximum Control Relaxation ([6]; Oroxylin A 3 μM, after 4-AP (10 mM)): 1.8 ± 1.6%
Percent of Maximum Control Relaxation ([6]; Oroxylin A 3 μM, after ETI (10 μM)): 21.4 ± 2.1%
Percent of Maximum Control Relaxation ([6]; Oroxylin A 3 μM, after GLP (30 μM)): 24.6 ± 3.4%
Percent of Maximum Control Relaxation ([6]; Oroxylin A 3 μM, after IBT (100 nM)): 16.8 ± 3.1%
Percent of Maximum Control Relaxation ([6]; Oroxylin A 3 μM, after INDO (30 μM)): 23.0 ± 1.8%
Percent of Maximum Control Relaxation ([6]; Oroxylin A 3 μM, after L-NNA (60 μM)): 26.9 ± 3.4%
Percent of Maximum Control Relaxation ([6]; Oroxylin A 3 μM, after MCN (5 μM)): 21.2 ± 3.4%
Percent of Maximum Control Relaxation ([6]; Oroxylin A 3 μM, after TEA (1 mM)): 7.1 ± 3.0%
Percent of Maximum Control Relaxation ([6]; Oroxylin A 3 μM, after TEA (10 mM)): 0** Percent
Percent of Maximum Control Relaxation ([6]; Oroxylin A 3 μM, control (no inhibitor), n=12): 24.6 ± 1.9%
Percent of Maximum Control Relaxation ([6]; Oroxylin A 10 μM, after 4-AP (10 mM)): 9.7 ± 2.0%
Percent of Maximum Control Relaxation ([6]; Oroxylin A 10 μM, after ETI (10 μM)): 41.3 ± 4.4%
Percent of Maximum Control Relaxation ([6]; Oroxylin A 10 μM, after GLP (30 μM)): 46.5 ± 7.1%
Percent of Maximum Control Relaxation ([6]; Oroxylin A 10 μM, after IBT (100 nM)): 30.8 ± 5.2%
Percent of Maximum Control Relaxation ([6]; Oroxylin A 10 μM, after INDO (30 μM)): 41.8 ± 5.6%
Percent of Maximum Control Relaxation ([6]; Oroxylin A 10 μM, after L-NNA (60 μM)): 45.3 ± 6.0%
Percent of Maximum Control Relaxation ([6]; Oroxylin A 10 μM, after MCN (5 μM)): 37.4 ± 4.5%
Percent of Maximum Control Relaxation ([6]; Oroxylin A 10 μM, after TEA (1 mM)): 31.5 ± 6.6%
Percent of Maximum Control Relaxation ([6]; Oroxylin A 10 μM, after TEA (10 mM)): 4.87 ± 1.5%
Percent of Maximum Control Relaxation ([6]; Oroxylin A 10 μM, control (no inhibitor), n=12): 49.0 ± 3.4%
Percent of Maximum Control Relaxation ([6]; Oroxylin A 30 μM, after 4-AP (10 mM)): 28.4 ± 6.7%
Percent of Maximum Control Relaxation ([6]; Oroxylin A 30 μM, after ETI (10 μM)): 91.4 ± 1.5%
Percent of Maximum Control Relaxation ([6]; Oroxylin A 30 μM, after GLP (30 μM)): 84.2 ± 7.1%
Percent of Maximum Control Relaxation ([6]; Oroxylin A 30 μM, after IBT (100 nM)): 68.1 ± 7.2%
Percent of Maximum Control Relaxation ([6]; Oroxylin A 30 μM, after INDO (30 μM)): 89.1 ± 3.6%
Percent of Maximum Control Relaxation ([6]; Oroxylin A 30 μM, after L-NNA (60 μM)): 91.9 ± 2.8%
Percent of Maximum Control Relaxation ([6]; Oroxylin A 30 μM, after MCN (5 μM)): 87.2 ± 2.6%
Percent of Maximum Control Relaxation ([6]; Oroxylin A 30 μM, after TEA (1 mM)): 58.6 ± 6.7%
Percent of Maximum Control Relaxation ([6]; Oroxylin A 30 μM, after TEA (10 mM)): 16.3 ± 2.0%
Percent of Maximum Control Relaxation ([6]; Oroxylin A 30 μM, control (no inhibitor), n=12): 86.0 ± 2.6%
EC50 ([6]; after ETI (10 μM), read-out: EC50): 8.1 µM
EC50 ([6]; after GLP (30 μM), read-out: EC50): 11.2 µM
EC50 ([6]; after IBT (100 nM), read-out: EC50): 15 µM
EC50 ([6]; after INDO (30 μM), read-out: EC50): 10 µM
EC50 ([6]; after L-NNA (60 μM), read-out: EC50): 11.4 µM
EC50 ([6]; after MCN (5 μM), read-out: EC50): 10.5 µM
EC50 ([6]; after TEA (1 mM), read-out: EC50): 21.5 µM
EC50 ([6]; after TEA (10 mM), read-out: EC50): 39.3 µM
EC50 ([6]; control (no inhibitor), n=12, read-out: EC50): 8.4 µM
EC50 ([6]; endothelium-denuded arteries, U-46619, n=12, read-out: EC50 of relaxation): 8.4 µM
EC50 ([6]; intact endothelium, pre-contracted with U-46619 (1 μM), n=4, read-out: EC50 of relaxation): 7.9 µM
U-46619-induced active muscle tone ([6]; U-46619 (1 μM)): concentration-dependant inhibition
U-46619-induced active muscle tone ([6]; U-46619 (1 μM), listed as Oroxylin A): in a concentration-dependent manner decreased
Ca2+-activated K+ channel opening [6, 8]: is a Ca^2+— activated K^+ channel opener
KATP channel opening [6, 8]: is not a KATP channel opener
concentration at which maximum relaxation was achieved ([6]; intact endothelium, U-46619 (1 μM)): 30 µM
LPS-induced nitrite production [7]: significant inhibition
